Data on four compounds can be found in ChEMBL document CHEMBL1132830, “Serotonin transporter inhibitors: synthesis and binding potency of 2'-methyl- and 3'-methyl-6-nitroquipazine” (Bioorg Med Chem Lett, 2000).

In assay [1] the target is Sodium-dependent serotonin transporter (Rattus norvegicus, UniProt P31652). Description: In vitro radioligand [3H]-paroxetine from rat cortical Serotonin transporter.
Assay [2] is described as follows: Equipotent molar ratio of compound to that of standard (compound 1) was evaluated.

Sequence of Sodium-dependent serotonin transporter (P31652 whole entry): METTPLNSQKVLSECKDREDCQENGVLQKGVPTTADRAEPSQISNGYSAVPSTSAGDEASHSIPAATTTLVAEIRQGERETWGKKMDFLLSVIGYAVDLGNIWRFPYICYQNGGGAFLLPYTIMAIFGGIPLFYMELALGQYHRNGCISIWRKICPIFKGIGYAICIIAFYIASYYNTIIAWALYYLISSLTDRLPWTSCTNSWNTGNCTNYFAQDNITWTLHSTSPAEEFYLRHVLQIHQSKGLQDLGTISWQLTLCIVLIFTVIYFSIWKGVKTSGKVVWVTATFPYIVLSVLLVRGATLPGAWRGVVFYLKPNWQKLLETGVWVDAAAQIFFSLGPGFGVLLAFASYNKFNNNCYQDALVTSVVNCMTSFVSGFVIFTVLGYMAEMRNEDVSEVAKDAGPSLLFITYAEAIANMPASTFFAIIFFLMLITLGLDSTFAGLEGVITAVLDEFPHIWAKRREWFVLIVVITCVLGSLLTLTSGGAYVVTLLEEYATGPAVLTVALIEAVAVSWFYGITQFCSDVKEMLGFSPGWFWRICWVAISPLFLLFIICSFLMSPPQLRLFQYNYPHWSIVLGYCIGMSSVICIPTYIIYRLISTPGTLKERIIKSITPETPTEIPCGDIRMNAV

The Ki is the dissociation constant of the complex between target and ligand, obtained from inhibition or displacement. Higher therefore signals lower affinity. In assay [1], `CC1CNCCN1c1ccc2cc([N+](=O)[O-])ccc2n1` (configuration not stated) registered an inhibitory constant (Ki) of 0.081 nM. Further, the Ratio in assay [2] was found to be 0.49.

As to `O=[N+]([O-])c1ccc2nc(N3CCNCC3)ccc2c1I`, in assay [1], affinity was put at a Ki of 0.19 nM.

In the case of `CC1CN(c2ccc3cc([N+](=O)[O-])ccc3n2)CCN1` (configuration not stated), affinity in assay [1] was put at a Ki of 4.56 nM. In assay [2], the Ratio amounted to 28.

`O=[N+]([O-])c1ccc2nc(N3CCNCC3)ccc2c1` [6-NITROQUIPAZINE] registered a Ki in assay [1] of 0.163 nM. Further, in assay [2], the Ratio was determined as 1.
